# Measurements reported in patent publication EP1370276B1, “INTERCELLULAR COMMUNICATION FACILITATING COMPOUNDS AND THEIR MEDICAL USE” (Zealand Pharma A/S, priority 2001, dated 2002).
# What was measured:
# [1] = system: isolated perfused rabbit hearts; experiment: Isolated perfused rabbit heart (Langendorff), APD90 dispersion during hypokalemic ischemia; settings: 10^-10 mol/l
# [2] = system: cAMP formation in CHO cells; experiment: Inhibition of forskoline stimulated cAMP formation in CHO cells; assay type: cell-based; settings: 10 µM forskoline, 20 min, cells pre-treated with glucose and oxygen deprivation
# Description: CHO cells are seeded in 96-well microtiter plates in a density of 6,000 cells/cm^2 (∼ 2,000 cells/well) and grown for 4 days in vitro in 200 µl/well of growth media as described in the previous section.
# On the day of analysis cells are removed from the incubator and washed twice with 200 µl pre-warmed (37°C) D-PBS (pH 7.2) to remove serum. Cells are incubated for 10 min in glucose free D-PBS and an N2-atmosphere as described in the previous section.
# CHO cells are incubated at 37° C in D-PBS (pH 7.2) containing 6 mM glucose, 2.0 mM IBMX (phospodiesterase blocker), 10 µM forskoline (stimulates cAMP formation) and increasing concentrations of test peptide. The reaction is stopped after 20 min by addition of 20 µl 0.5 M HCl and left for at least 20 min at room temperature.
# The content of cAMP is analysed by mixing 20 µl of the acid cell extract into FlashPlate™ wells (NEN assay kit SMP001) containing 180 µl [^12SI]cAMP tracer solution. FlashPlates™ are incubated overnight at 4° C and plate bound radioactivity counted in TopCount (Packard Instrument). Data are calculated as described in the previous section.
# [3] = system: human osteoblast; settings: human osteoblast cultures and osteoblastic rat osteosarcoma cell lines; conference abstract; cited from earlier work
# [4] = system: phosphoinositol turnover in rat primary cardiomyocytes; settings: oxygen and glucose deprivation (untreated app. 50%); conference abstract; cited from earlier work
# [5] = system: human osteoblast; experiment: Lucifer Yellow microinjection dye transfer, human osteoblasts; assay type: cell-based; settings: 10 minutes, after 48 hours hypoxia 3-6% O2 (7 cells before)
# Description: (§1) Human osteblast cells (hOB): Cells were isolated from human bone marrow obtained by puncture of the posterior iliac spine of healthy volunteers (aged 20-36): 10-15 ml marrow material was collected in 15 ml PBS+Ca,Mg (Life Technologies, Cat.No. 14040) with 100 U/ml Heparin (Sigma, Cat.No. H-3149). The mononuclear fraction of the marrow was isolated on a Lymphoprep gradient (Nycomed Pharma, Cat.No. 1001967), by centrifugation at 2200 rpm for 30 min. After harvesting, the mononuclear fraction was washed once with culture medium and centrifuged at 1800 rpm for 10 min. Subsequently cells were counted and plated in culture medium at 8x10^6 cells/100 mm dish. hOB medium (all reagents obtained from Life Technologies): MEM w/o Phenol Red w/ Glutamax (Cat.No. 041-93013) supplemented with 10% heat inactivated fetal calf serum (Cat.No. 10106) and 0.1% Penicillin/Streptomycin (Cat.No. 15140). Medium was changed the following day and the cells were cultured at 37°C in 5%CO2 with medium change every 7 days. After 3-4 weeks of culture the cells had reached 70% confluence. The medium was then supplemented with 100 nM Dexamethasone (Sigma, Cat.No. D-4902) for 7 days. Cells were then plated for video imaging experiments: a 25 mm #1 glass coverslip was
# placed in a 35 mm dish (or each well of a 6-well multidish), cells were plated at 2.5×10^5 cells/coverslip and cultured for 2-3 days before use. […]
# [6] = system: alkaline phosphatase (ALP) activity of human osteoblasts; experiment: Alkaline phosphatase assay in human osteoblasts; assay type: cell-based
# Description: as §1, with “The medium was then supplemented with 100 nM Dexamethasone (Sigma, Cat.No. D-4902) for 7 days. Cells were then plated for video imaging experiments: a 25 mm #1 glass coverslip was” left out
# • Day 1: Cells were plated in 96-well plates at a conc. of 8000 cells/well (hOB) or 3000 cells/well (ROS) in 200 µl normal culture medium. • Day 2: Medium was changed on the cells. • Day 4: (Day 3 for ROS): Cells were washed with 200 µl MEM, 0.1% BSA (Sigma, Cat.No. A-9418). […] Absorbance was measured using a plate reader at 405 nm.
substance,measurement,setting,value
Ac-D-Tyr-D-Pro-D-4Hyp-Gly-D-Ala-Gly-NH2 [Compound 2],"increase in APD90 dispersion during hypokalemic, acute myocardial ischemia",[1],prevented
same,EC50,[2],6.2 nM
same,hypoxia-induced decrease of dye transfer after Lucifer Yellow injections,[3],completely reversed
same,"noradrenalin-induced PI turnover, % of the normal level",[4],~90%
same,dye transfer (number of cells containing Lucifer Yellow),[5],9 cells
same,ALP activity,"[6]; 1 × 10^-13 to 1 × 10^-6, normal culture conditions, 4 days",increased ALP activity at most of the concentrations tested
same,stimulation of ALP activity during hypoxia compared with normoxia,"[6]; 5% O2, four days, 10^-11 to 10^-8 mol/l",about 15%
